Test [1] concerns P. falciparum stage V male gametocytes (male gamete formation). The test can be described thus: P. falciparum dual gamete formation assay (Pf DGFA), male readout (exflagellation), 48 h carry-over format. Format: cell-based, Plasmodium falciparum NF54. Particulars: primary screen, 2 uM, 48 h incubation, single replicate.
For test [2], the system named is P. falciparum stage V female gametocytes (female gamete formation). The test can be described thus: P. falciparum dual gamete formation assay (Pf DGFA), female readout (Pfs25 expression), 48 h carry-over format. Format: cell-based, Plasmodium falciparum NF54. The conditions noted are these: primary screen, 2 uM, 48 h incubation, single replicate.

A value given as a limit tells only on which side of the number the result lay.

Regarding `COc1cccc2c1OCC(C(=O)N1CCN(C3CCCC3)C(=O)C1)C2` (stereo not shown) [DDD01252180], in test [1], the “%Inhibition Male @2uM” value came out at 176.84%. Besides, the “%Inhibition Female @2uM” value in test [2] is recorded as less than 30%.
For `COc1ccc(-c2cc(CNc3ncnc4c3CCNCC4)no2)cc1` [DDD01252258] the same measures were less than 30% and 36.22%.
With `CN(C)c1nc2c(c(N(C)C)n1)CCN(C(=O)CN1C[C@H]3CC[C@@H]1C3)C2` [DDD01252415], the “%Inhibition Male @2uM” value in test [1] is recorded as less than 30%. In test [2], the “%Inhibition Female @2uM” value turned out to be 30.39%.
Taken in the same sequence, the figures for `Cc1c(NCc2cccnc2)cccc1C(=O)N1CCC(N(C)C)C1` (stereo not shown) [DDD01252445] were 39.91% and less than 30%.
As to `c1ccn2c(C3CCCN(c4ncnc5c4CCNC5)C3)nnc2c1` (stereo not shown) [DDD01252518], the “%Inhibition Male @2uM” value in test [1] was less than 30%. In test [2], the “%Inhibition Female @2uM” value is reported as 33.03%.
For `O=C(c1cccc(S(=O)(=O)NCCc2ccccn2)c1)N1CCOCC1` [DDD01252530], in test [1], the “%Inhibition Male @2uM” value is given as 176.84%. The “%Inhibition Female @2uM” value in test [2] is listed as less than 30%.
Taken in the same sequence, the figures for `CN(C)Cc1nnc(C2CCCN(Cc3ccc(Cl)s3)C2)n1C` (stereo not shown) [DDD01252876] were 184.62% and less than 30%.
For `Cc1cc(CC(=O)N2CCN(CC(C)C)[C@@H]3CS(=O)(=O)C[C@@H]32)ccc1F` [DDD01253102] the same measures were 30.33% and less than 30%.
For `Cc1ccc(-c2nc(CNC(C)CCO)[nH]c2-c2ccccn2)cc1` (stereo not shown) [DDD01253542] the same measures were 59.22% and 47.40%.
`CN1CC2(CCN(C(=O)c3ccc(=O)n(C)c3)CC2)CC1=O` [DDD01253564]: in test [1], the “%Inhibition Male @2uM” value is less than 30%. In addition, the “%Inhibition Female @2uM” value in test [2] amounted to 30.30%.
For `CS(=O)(=O)N1C[C@H]2CC[C@@H](C1)N(C(=O)CCn1cnc3ccccc31)C2` [DDD01253654], in test [1], the “%Inhibition Male @2uM” value turned out to be 35.49%. Besides, the “%Inhibition Female @2uM” value in test [2] was less than 30%.
In the case of `Cc1cc(NCc2ccc(O)cc2)n2nc(C)cc2n1` [DDD01253811], in test [1], the “%Inhibition Male @2uM” value was less than 30%. Also, the “%Inhibition Female @2uM” value in test [2] was 99.46%.
For `CC(C)OC(=O)N1CCC(Cc2cccc(C(N)=O)c2)C1` (stereo not shown) [DDD01254183] the same measures were 132.02% and less than 30%.
For `CSc1ccc(C(=O)N2CCCC(Nc3ccc(F)cc3)C2)cc1` (stereo not shown) [DDD01254674] the same measures were 162.04% and less than 30%.
For `Cc1oc(-c2ccoc2)nc1CN1CCCCC1CCc1ccccc1` (stereo not shown) [DDD01254868] the same measures were 143.16% and less than 30%.
On to `O=C(CSc1ccncc1)N1CCC2(CC1)c1ccccc1CC2O` (stereo not shown) [DDD01255239], for which, in test [1], the “%Inhibition Male @2uM” value turned out to be 143.16%. In addition, in test [2], the “%Inhibition Female @2uM” value is listed as less than 30%.
In the case of `CN(Cc1nccn1C)C1CCCN(CCCc2ccccc2)C1` (stereo not shown) [DDD01255359], the “%Inhibition Male @2uM” value in test [1] is 61.22%. Besides, in test [2], the “%Inhibition Female @2uM” value is on record as less than 30%.
Taken in the same sequence, the figures for `CCc1nnc(CNC(=O)CCN2CCN(c3cccc(C)c3)CC2)s1` [DDD01255634] were 133.78% and less than 30%.
For `Cc1ccc(CN2CCN(C(=O)c3ccc(CO)cc3)C(C)C2=O)cc1` (stereo not shown) [DDD01255654] the same measures were less than 30% and 38.25%.
Taken in the same sequence, the figures for `COC(=O)C1CCN(C(=O)c2cccc(NS(C)(=O)=O)c2C)CC1` [DDD01255952] were 126.32% and less than 30%.
Take `COc1cccc2c1OCC(C(=O)N1CCC(NS(C)(=O)=O)CC1)C2` (stereo not shown) [DDD01255971]: in test [1], the “%Inhibition Male @2uM” value was determined as 160.00%. Also, the “%Inhibition Female @2uM” value in test [2] is listed as less than 30%.
For `Cc1ccccc1C(=O)Nc1ccc(OC2CCN(C)CC2)cc1` [DDD01256105] the same measures were 177.06% and less than 30%.
For the molecule `Cc1cnn(CCCN2C(=O)CCc3ccccc32)c1` [DDD01256166], the “%Inhibition Male @2uM” value in test [1] is reported as 31.82%. The “%Inhibition Female @2uM” value in test [2] is reported as less than 30%.
Taken in the same sequence, the figures for `Cc1ccc(CN2CCCC(c3nnc(CN4CCCC4)n3C)C2)s1` (stereo not shown) [DDD01256510] were 109.47% and less than 30%.
As to `COCCN(C)CCN1CC2(CCN(C3CCOCC3)CC2)OC1=O` [DDD01256592], the “%Inhibition Male @2uM” value in test [1] is 44.84%. In test [2], the “%Inhibition Female @2uM” value was less than 30%.
As to `O=C(O)CCc1cc2n(n1)CCCN(C(=O)c1cc3ccccc3s1)C2` [DDD01256606], the “%Inhibition Male @2uM” value in test [1] is reported as less than 30%. Moreover, in test [2], the “%Inhibition Female @2uM” value turned out to be 30.77%.
Turning to `CC(C)(CNC1CCCN(Cc2ccccn2)C1)CN1CCOCC1` (stereo not shown) [DDD01256674], the “%Inhibition Male @2uM” value in test [1] is less than 30%. For the same molecule, in test [2], the “%Inhibition Female @2uM” value is reported as 31.10%.
Turning to `Cc1cc(C(=O)N2CCC(c3nccn3Cc3ccccn3)CC2)no1` [DDD01256728], the “%Inhibition Male @2uM” value in test [1] is 88.77%. For the same molecule, the “%Inhibition Female @2uM” value in test [2] is reported as less than 30%.
For `CCOCC(=O)N1CCC(c2nccn2CC2CC2)CC1` [DDD01256942], in test [1], the “%Inhibition Male @2uM” value stood at 104.28%. In addition, in test [2], the “%Inhibition Female @2uM” value is recorded as less than 30%.
`CN(C)C(=O)N1C[C@H]2CC[C@@H](C1)N(C/C=C/c1ccc(F)cc1)C2` [DDD01256992]: the “%Inhibition Male @2uM” value in test [1] is reported as less than 30%. For the same molecule, in test [2], the “%Inhibition Female @2uM” value came out at 32.94%.
Regarding `COc1ccc(C(=O)N2CCOC3(CNCCOC3)C2)c(OC)n1` (stereo not shown) [DDD01257050], in test [1], the “%Inhibition Male @2uM” value was found to be 126.32%. In addition, in test [2], the “%Inhibition Female @2uM” value is recorded as less than 30%.
In the case of `CN(Cc1ccccc1CN1CCCC1)C(=O)c1c[nH]c(=O)[nH]1` [DDD01257093], the “%Inhibition Male @2uM” value in test [1] is listed as less than 30%. Further, the “%Inhibition Female @2uM” value in test [2] is on record as 34.04%.
Turning to `Cc1ccc(F)cc1CC(=O)N(CCN1CCOCC1)Cc1ccco1` [DDD01257151], the “%Inhibition Male @2uM” value in test [1] is recorded as less than 30%. Besides, the “%Inhibition Female @2uM” value in test [2] was 36.90%.
In the case of `O=C1N(CCC2CCCCC2)CCCC1(O)CNCCc1ccccc1` (stereo not shown) [DDD01257222], the “%Inhibition Male @2uM” value in test [1] was 147.75%. The “%Inhibition Female @2uM” value in test [2] was less than 30%.
Taken in the same sequence, the figures for `CCn1cc(CN(C)C(=O)c2cccc(CCC(C)(C)O)c2)cn1` [DDD01257573] were less than 30% and 32.19%.
For `CN(CCO)Cc1nnc(C2CCN(C3CCCCC3)CC2)n1C` [DDD01257771] the same measures were less than 30% and 30.00%.
Taken in the same sequence, the figures for `COc1ccc(C(=O)C2CCCN(Cc3ccncc3)C2)c(OC)c1` (stereo not shown) [DDD01257881] were less than 30% and 31.13%.
In the case of `c1cn(Cc2nnc(C3CCN(c4nccs4)CC3)n2C2CC2)cn1` [DDD01257895], the “%Inhibition Male @2uM” value in test [1] is recorded as less than 30%. Also, the “%Inhibition Female @2uM” value in test [2] came out at 34.43%.
For `Cc1nn(C)cc1C(=O)N1C[C@@H]2CC[C@H]1CN(S(=O)(=O)N(C)C)C2` [DDD01257957] the same measures were less than 30% and 39.59%.
In the case of `Cc1cc(C)nc(N2Cc3cnn(Cc4ccc(F)cc4)c3C2)n1` [DDD01258067], in test [1], the “%Inhibition Male @2uM” value was less than 30%. Further, in test [2], the “%Inhibition Female @2uM” value is 46.44%.
Taken in the same sequence, the figures for `COc1cc(C)c(CN2CCC3(CC2)C(C(=O)O)CC(=O)N3C)cc1C` (stereo not shown) [DDD01258170] were less than 30% and 46.51%.
Taken in the same sequence, the figures for `COc1cccc(S(=O)(=O)NC(=O)CC2CCCO2)c1` (stereo not shown) [DDD01295262] were less than 30% and 46.83%.
For `Cc1nn(C)c(C)c1CCC(=O)N1CCCC(n2cccn2)C1` (stereo not shown) [DDD01296064] the same measures were 47.51% and less than 30%.
In the case of `Cc1cn2c(n1)CCC(NC(=O)Cn1cncn1)C2` (stereo not shown) [DDD01296301], the “%Inhibition Male @2uM” value in test [1] was less than 30%. Moreover, the “%Inhibition Female @2uM” value in test [2] was 57.78%.
Taken in the same sequence, the figures for `NC(=O)COc1ccc(C(=O)N2CCCC(n3ccnc3)C2)cc1` (stereo not shown) [DDD01296946] were less than 30% and 40.74%.
In the case of `Cc1cnn(CC2CCCN2Cc2nnc(C(C)C)o2)c1` (stereo not shown) [DDD01296988], the “%Inhibition Male @2uM” value in test [1] is 60.45%. Also, in test [2], the “%Inhibition Female @2uM” value is listed as 33.35%.
As for `CN(Cc1nnc(C2CC2)n1C)C1CCN(Cc2nccn2C)C1` (stereo not shown) [DDD01296990], the “%Inhibition Male @2uM” value in test [1] was 57.47%. Further, the “%Inhibition Female @2uM” value in test [2] is less than 30%.
In the case of `CCS(=O)(=O)N1CCC(NC(=O)c2cc(C)ccc2O)CC1` [DDD01297269], the “%Inhibition Male @2uM” value in test [1] is less than 30%. In addition, the “%Inhibition Female @2uM” value in test [2] is given as 56.83%.
Taken in the same sequence, the figures for `CC(C)CCc1nc(CNCC2CCCN2c2cccnn2)cs1` (stereo not shown) [DDD01297850] were less than 30% and 39.30%.
Taken in the same sequence, the figures for `CCc1nnc2n1CCN(C(=O)c1nc(-c3ccco3)sc1C)C2` [DDD01298399] were 30.87% and less than 30%.
Consider `CN1CCOC(CNCc2coc(-c3ccccc3Cl)n2)C1` (stereo not shown) [DDD01298713], for which the “%Inhibition Male @2uM” value in test [1] was 34.66%. The “%Inhibition Female @2uM” value in test [2] is less than 30%.
Taken in the same sequence, the figures for `O=C(c1ccc(-n2ccnc2)cc1)N1CCCC(n2ccnc2)C1` (stereo not shown) [DDD01298772] were less than 30% and 36.32%.
Turning to `Cc1cc(NC(=O)CN2CCc3cnc(C(C)C)nc3C2)on1` [DDD01298964], the “%Inhibition Male @2uM” value in test [1] was less than 30%. Further, the “%Inhibition Female @2uM” value in test [2] is listed as 41.23%.
For `Cc1cc(C)cc(OCCN2CCn3c(C)nnc3C2)c1` [DDD01299569] the same measures were less than 30% and 31.60%.
Take `CCN1CCN(Cc2csc(C(C)C)n2)CC1` [DDD01301366]: the “%Inhibition Male @2uM” value in test [1] was 30.44%. Also, the “%Inhibition Female @2uM” value in test [2] is recorded as less than 30%.
With `CC(C)COC(C)C(=O)NCc1ccc(-n2cncn2)nc1` (stereo not shown) [DDD01301486], in test [1], the “%Inhibition Male @2uM” value is less than 30%. Further, in test [2], the “%Inhibition Female @2uM” value amounted to 33.08%.

The values are drawn from PMC6143625, “A high throughput screen for next-generation leads targeting malaria parasite transmission” (Nature Communications, 2018).
